Laboratory results reported in US9505824B2, “Antigen peptide derived from the sequence of epidermal growth factor receptor having T790M point mutation” (Kanagawa Prefectural Hospital Organization, priority 2012, dated 2016).

How the values were obtained:
HLA-A2 molecule [1] = target: T1, HLA-A2 molecule (Homo sapiens, UniProt P04439, D140Y/D185E/D98H/E176V/E277Q/G131W/G231S/I119V/I121R/I166T/I218V/L300P/L318F/N151K/N90K/P208A/P217A/Q86G/Q94H/R138H/R169H/T345S); assay: HLA class I stabilization assay with TAP2-deficient T2 cells; format: binding; settings: T2 cells expressing HLA-A2
T1 construct: TAP2-deficient T2 cells expressing HLA-A2; host or cells: T2 cells (TAP2-deficient, HLA-A2+)
Method: FIG. 6. HLA-A2-binding capability of EGFR-T790M-derived peptides. The binding of selected peptides to an HLA-A2 molecule was evaluated by HLA class I stabilization assay with TAP2-deficient T2 cells expressing HLA-A2.
The binding of predicted peptides to an HLA-A2 molecule was evaluated by HLA class I stabilization assay with TAP2-deficient T2 cells (HLA-A2+) (RIKEN, Saitama, Japan). After overnight culture in RPMI 1640 medium at 26° C., T2 cells were cultured for 3 hours at 26° C. in the presence of each synthetic peptide. The cells were cultured for 2.5 hours at 37° C., and then stained with anti-HLA-A2 antibody (BB7.2) (MBL, Nagoya, Japan), followed by analysis with flow cytometry. The binding capability of each peptide to the HLA-A2 molecule was evaluated by comparing the mean fluorescence intensity (MFI) of HLA-A2 expression of the peptide with those of the positive and the negative controls. The HLA-A2-restricted HIV peptide and CMV peptide were used as positive controls, and H-2K^b-restricted OVA peptide was used as a negative control.

HLA-A2 molecule [2] = assay: HLA class I stabilization assay with TAP2-deficient RMA-S/A2 cells; format: binding; settings: peptide 10 μg/ml
[3] = system: PBMCs from HLA-A2+ healthy donors; assay: Immunogenicity in PBMCs of HLA-A2+ healthy donors, IFN-γ ELISPOT against peptide-pulsed T2 cells; format: cell-based, human; settings: PBMCs from 6 HLA-A2+ healthy donors, repeated stimulation with peptide 10 μg/ml
Text: FIG. 1. Immunogenicity of T790M-5 and T790M-7 peptides in peripheral blood mononuclear cells (PBMCs) from normal donors. Immunogenicity of T790M-5 and T790M-7 peptides was examined with PBMCs from 6 different HLA-A2^+ healthy donors.

binding to HLA-A2 (in words) (HLA-A2 molecule [1])	Sequence	HLA binding capability (%) (MFI increase of HLA-A2 expression) (HLA-A2 molecule [2])	healthy donors in whom T cell lines secreting IFN-γ in response to the peptide were established [3]
confirmed to bind to HLA-A2	LIMQLMPFGC [Peptide T790M-3]	0%	
	LTSTVQLIMQL [Peptide T790M-6]	0%	
	IMQLMPFGCLL [Peptide T790M-8]	69.3%	none of the 6 healthy donors
	QLIMQLMPFG [Peptide T790M-2]	0%	
higher binding	IMQLMPFGL [Peptide T790M-E]		
	IMQLMPFGCL [Peptide T790M-4]	0%	
	VQLIMQLMPF [Peptide T790M-1]	0%	
higher binding	IMQLMPFGV [Peptide T790M-D]		
